According to the supplement of paper PMC3937590:

Legend:
Assay in all cases: -log10 GI50 (growth inhibition 50%) (-log10(M)); higher = more potent growth inhibition
EFM192A = tested on: EFM192A
Method in brief: (§1)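 Breast cancer cell lines were exposed to each compound for 72 hours at nine doses in 1:5 serial dilution, in triplicate, with a luminescence read-out against a time-zero plate. A Gompertz curve was fitted to the dose-response data by nonlinear least squares. The value is minus log10 of GI50, the molar concentration giving the set level of growth inhibition. Values equal to the top dose carry a < qualifier.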

CAL851 = tested on: CAL851
Method in brief: as §1

CAL148 = tested on: CAL148
Method in brief: as §1

EFM192B = tested on: EFM192B
Method in brief: as §1

JIMT1 = tested on: JIMT1
Method in brief: as §1

EFM19 = tested on: EFM19
Method in brief: as §1

CAL120 = tested on: CAL120
Method in brief: as §1

SUM44PE = tested on: SUM44PE
Method in brief: as §1

EFM192C = tested on: EFM192C
Method in brief: as §1

21PT = tested on: 21PT
Method in brief: as §1

COc1ccc(-c2cc3c(C)nc(N)nc3n([C@H]3CC[C@H](OCCO)CC3)c2=O)cn1
-log10 GI50 (EFM192A): 6.92
-log10 GI50 (CAL851): 7.4
-log10 GI50 (CAL148): 6.35
-log10 GI50 (EFM192B): 6.73
-log10 GI50 (JIMT1): 6.46
-log10 GI50 (EFM19): 7.42
-log10 GI50 (CAL120): 6.05

CO[C@H]1C[C@@H]2CC[C@@H](C)[C@@](O)(O2)C(=O)C(=O)N2CCCC[C@H]2C(=O)O[C@H]([C@H](C)C[C@@H]2CC[C@@H](O)[C@H](OC)C2)CC(=O)[C@H](C)/C=C(\C)[C@@H](O)[C@@H](OC)C(=O)[C@H](C)C[C@H](C)/C=C/C=C/C=C/1C [Rapamycin]
-log10 GI50 (SUM44PE): 9.26

CC(=O)Nc1cccc(-n2c(=O)n(C3CC3)c(=O)c3c(Nc4ccc(I)cc4F)n(C)c(=O)c(C)c32)c1
-log10 GI50 (SUM44PE): 6.91

CCC[C@H](N[C@H]1CCc2cc(F)cc(F)c2C1)C(=O)Nc1cn(C(C)(C)CNCC(C)(C)C)cn1
-log10 GI50 (EFM192A): 4.58
-log10 GI50 (EFM192C): 4.46
-log10 GI50 (CAL851): 5.29
-log10 GI50 (CAL148): 4.91
-log10 GI50 (EFM192B): 4.8
-log10 GI50 (JIMT1): 4.7
-log10 GI50 (EFM19): 4.79
-log10 GI50 (CAL120): 4.76

CC(=O)NCC(=O)N1[C@@H]2CC[C@H]1c1ccc(Nc3ncc(C(F)(F)F)c(NC4CCC4)n3)cc12
-log10 GI50 (EFM192A): 5.09
-log10 GI50 (EFM192C): 5.07
-log10 GI50 (CAL851): 5.04
-log10 GI50 (CAL148): 7.04
-log10 GI50 (EFM192B): 5.28
-log10 GI50 (JIMT1): 5.41
-log10 GI50 (EFM19): 5.63
-log10 GI50 (CAL120): 5.76

C=CCNC1=C2C[C@@H](C)C[C@H](OC)[C@H](O)[C@@H](C)/C=C(\C)[C@H](OC(N)=O)[C@@H](OC)/C=C\C=C(/C)C(=O)NC(=CC1=O)C2=O [17-AAG]
-log10 GI50 (SUM44PE): 8.84

CC[C@@]1(O)C(=O)OCc2c1cc1n(c2=O)Cc2cc3c(CN(C)C)c(O)ccc3nc2-1 [Topotecan]
-log10 GI50 (SUM44PE): 6.43

CC/C(=C(\c1ccccc1)c1ccc(OCCN(C)C)cc1)c1ccccc1 [Tamoxifen]
-log10 GI50 (SUM44PE): 7.03

Cn1ncc(Cl)c1-c1cc(C(=O)N[C@H](CN)Cc2ccc(F)c(F)c2)oc1Cl
-log10 GI50 (EFM192A): 7.53
-log10 GI50 (CAL851): 5.12
-log10 GI50 (CAL148): 8.06
-log10 GI50 (EFM192B): 6.63
-log10 GI50 (JIMT1): 5.74
-log10 GI50 (21PT): 5.03
-log10 GI50 (EFM19): 7.42
-log10 GI50 (CAL120): 5.13
